Results as given in patent EP2864333B1, “ETODOLAC DERIVATIVES AS HCV NS5B POLYMERASE INHIBITORS” (priority 2012, dated 2014).
Read-outs that look alike come from different tables or passages of the source.

Key:
[1] = target: T1, HCV NS5B RdRp (NS5BCdelta21) (Hepatitis C virus genotype 1b, UniProt P26663); test: HCV NS5B RNA-dependent RNA polymerase (RdRp) assay, poly rA/U12 primer-dependent elongation; assay type: biochemical; conditions: for inhibition at 100 µM: read-out: Anti-NS5B Activity (% Inhibition, 100 µM); for inhibition at 200 µM: read-out: Anti-NS5B Activity (% Inhibition, 200 µM)
T1 construct: 500 ng of NS5BCdelta21; made in house; host or cells: Escherichia coli DH5alpha
T1 sequence (P26663 2420-2989): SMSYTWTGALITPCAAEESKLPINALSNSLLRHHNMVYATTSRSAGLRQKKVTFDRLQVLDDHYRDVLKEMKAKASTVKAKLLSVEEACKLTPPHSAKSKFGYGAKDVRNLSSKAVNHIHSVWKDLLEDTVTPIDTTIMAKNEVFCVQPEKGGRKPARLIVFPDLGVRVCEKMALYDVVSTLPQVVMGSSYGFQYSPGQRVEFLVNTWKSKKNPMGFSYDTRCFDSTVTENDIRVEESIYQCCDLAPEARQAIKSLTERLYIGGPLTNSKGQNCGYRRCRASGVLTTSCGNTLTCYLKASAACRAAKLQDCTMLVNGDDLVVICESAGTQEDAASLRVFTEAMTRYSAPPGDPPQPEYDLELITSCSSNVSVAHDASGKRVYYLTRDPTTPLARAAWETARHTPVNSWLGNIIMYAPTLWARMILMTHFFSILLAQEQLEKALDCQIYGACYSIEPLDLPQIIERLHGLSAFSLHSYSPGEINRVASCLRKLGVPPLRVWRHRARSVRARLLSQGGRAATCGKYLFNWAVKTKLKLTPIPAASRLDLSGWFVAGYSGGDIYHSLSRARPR
Description: The RdRp activity of NS5B was evaluated by the standard primer-dependent elongation reactions employing poly rA/U12 template-primers (TP). Reaction mixtures containing 20 mM Tris-HCl (pH 7.0), 100 mM NaCl, 100 mM Na-glutamate, 0.5 mM DTT, 0.01% BSA, 0.01% Tween-20, 5% glycerol, 20 U/ml of RNasin, 0.5 microM of poly rA/U12, 25 microM UTP, 2-5 microCi [alpha-32P]UTP, 500 ng of NS5BCdelta21 and 0.5 mM MnCl2 with or without inhibitors in a total volume of 25 microliters were incubated for 1 h at 30°C. Reactions were quenched by the addition of ice cold 5% (v/v) trichloroacetic acid (TCA) containing 0.5 mM pyrophosphate (PPi), the denatured polymeric RNA products were transferred to GF-B filters and the amount of radioactive UMP incorporated into RNA products was quantified on a liquid scintillation counter (Packard). The concentrations of the compounds inhibiting 50% of NS5B RdRp activity (IC50) were calculated from the inhibition curves as a function of inhibitor concentration. Nsp12 activity was similarly evaluated except that incubations were carried out at 25°C for optimal enzymatic activity.
The ability of the compounds to inhibit HCV NS5B RdRp activity was investigated in vitro by polyrA-U12 extension assay as described in experimental section by Kaushik-Basu N, et al.. The compounds SGK 224-230, 313 and SGK 238- 244, 315 were reconstituted in DMSO as 50 mM stocks, and serially diluted in DMSO to obtain working stocks.
Preliminary screening was carried out at 100 µM to identify a wider range of compounds. […] NS5B RdRp activity in the absence of the inhibitor was taken as 100 percent after subtraction of residual background activity. The concentration of DMSO in all reactions was kept constant at 5%. […] Curves were fitted to data points using nonlinear regression analysis and IC50 values were interpolated from the resulting curves using GraphPad Prism 3.03 software.

[2] = target: T1, HCV NS5B RdRp (NS5BCdelta21); test: as above; assay type: biochemical; conditions: read-out: Anti-HCV Activity (%Inhibition, 100 µM)
[3] = dose-response curves, 8-10 concentrations, duplicate, two independent experiments, read-out: IC50

## CCc1cccc2c3c([nH]c12)C(CC)(CC(=O)OC)OCC3 (racemic) [SGK 196, methyl (1,8-diethyl-1,3,4,9-tetrahydropirano[3,4-b]indole-1-yl) acetate]
[1]
  inhibition at 100 µM: 6.4 ± 0.9%
  inhibition at 200 µM: 13.3 ± 1.2%

## CCc1cccc2c3c([nH]c12)C(CC)(CC(=O)NNC(=S)NC)OCC3 (stereo not drawn) [SGK 224, 1-[2-(1,8-diethyl-1,3,4,9-tetrahydropyrano[3,4-b]indol-1-yl)acetyl]-4-methyl thiosemicarbazide]
[1]; [3]
  IC50: 18.7 µM
[1]
  inhibition at 100 µM: 76.2 ± 0.5%
  inhibition at 200 µM: 77.5 ± 1.3%

## CCc1cccc2c3c([nH]c12)C(CC)(CC(=O)NN)OCC3 (stereo not drawn) [SGK 197, 2-(1,8-diethyl-1,3,4,9-tetrahydropyrano[3,4-b]indole-1-yl)acetohydrazide]
[1]
  inhibition at 100 µM: 11.4 ± 0.2%
  inhibition at 200 µM: 19 ± 4.4%

## C=CCNC(=S)NNC(=O)CC1(CC)OCCc2c1[nH]c1c(CC)cccc21 (stereo not drawn) [SGK 229, 1-[2-(1,8-Diethyl-1,3,4,9-tetrahydropyrano[3,4-b]indole-1-yl)acetyl]-4-allyl thiosemicarbazide]
[1]; [3]
  IC50: 16.8 ± 1.2 µM
[1]
  inhibition at 100 µM: 78.6 ± 2.1%
  inhibition at 200 µM: 81.6 ± 0.8%

## CCc1cccc2c3c([nH]c12)C(CC)(CC(=O)O)OCC3 (racemic) [Etodolac, (R,S)-2-[1,8-diethyl-1,3,4-tetrahydrapyrano[3,4-b]indole-1-yl]acetic acid]
[2]
  inhibition at 100 µM: 7.4%

## CCc1cccc2c3c([nH]c12)C(CC)(CC(=O)NN=Cc1cccc(F)c1)OCC3 (stereo not drawn) [SGK 202, 2-(1,8-Diethyl-1,3,4,9-tetrahydropyrano[3,4-b]indole-1-yl) acetic acid [(3-fluorophenyl)methylene] hydrazide]
[1]
  IC50: 35.9 ± 1.4 µM
  inhibition at 100 µM: 61.6 ± 0.4%
  inhibition at 200 µM: 66.4 ± 5.8%

## CCc1cccc2c3c([nH]c12)C(CC)(Cc1n[nH]c(=S)n1C)OCC3 (stereo not drawn) [SGK 238, 5-[(1,8-diethyl-1,3,4,9-tetrahydropyrano[3,4-b]indol-1-yl)methyl]-4-methyl-2,4-dihydro-3H-1,2,4-triazole-3-thione]
[1]
  IC50: 14.8 µM
  inhibition at 100 µM: 78.9 ± 0.7%
  inhibition at 200 µM: 86 ± 0.6%

## COc1cc(O)c2c(c1)oc(=O)c1c3cc(O)c(O)cc3oc21 [Wedelolacton, reference compound]
[1]; [3]
  IC50: 36 µM
